In patent publication US20170253607A1, “LONG-ACTING HIV PROTEASE INHIBITOR” (Shionogi & Co., Ltd., priority 2014, published 2017) one finds IC50 data, which are given here for 41 molecules.

In this assay the target is HIV-1 PR (Human immunodeficiency virus type 1 group M subtype B, UniProt P04585). Briefly: HIV-protease inhibitory activity assay (FRET peptide substrate). It is filed as biochemical. The settings on record: Test Example 1. In outline:
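Inhibition of HIV-1 protease was measured as loss of fluorescence dequenching of a HiLyte Fluor 488/QXL 520 peptide at 2 μmol/L, pH 4.8, room temperature, 60 minute reaction. IC50 was derived by nonlinear four-parameter fitting.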
Turning to `COc1ccc(S(=O)(=O)N(CC(C)C)CC(O)C(Cc2ccc(N(C)Cc3ccc(Cl)cc3C(=O)Nc3sc4c(c3C(=O)O)CC(C)(C)CC4)cc2)NC(=O)OC2COC3(C)OCCC23)cc1` (centres unmarked) [Compound I-659], the half-maximal inhibitory concentration (IC50) – broadly, the point on the concentration scale where inhibition reaches its midpoint – is 9.51 nM.

`COc1ccc(S(=O)(=O)N(CC(C)C)CC(O)C(Cc2ccc(NCc3ccccc3-c3c(C(=O)O)[nH]c4ccccc34)cc2)NC(=O)OC2COC3(C)OCCC23)cc1` (centres unmarked) [Compound I-660] returned an IC50 of 2.12 nM.

With `COc1ccc(S(=O)(=O)N(CC(C)C)CC(O)C(Cc2ccc(NCc3ccccc3-c3c(C(=O)O)[nH]c4ccc(Cl)cc34)cc2)NC(=O)OC2COC3(C)OCCC23)cc1` (centres unmarked) [Compound I-661], the IC50 was 2.35 nM. The IC50 values of the last two molecules are within 1.5-fold of each other.

`COc1ccc(S(=O)(=O)N(CC(C)C)CC(O)C(Cc2ccc(N(C)CC(=O)Nc3sc4c(c3C(=O)O)CC(C)(C)CC4)cc2)NC(=O)OC2COC3(C)OCCC23)cc1` (centres unmarked) [Compound I-663] yielded an IC50 of 2.8 nM.

On to `COc1ccc(S(=O)(=O)N(CC(C)C)CC(O)C(Cc2ccc(N3CCC(Cc4ccccc4-c4sc5c(c4C(=O)O)CC(C)(C)CC5)C3)cc2)NC(=O)OC2COC3(C)OCCC23)cc1` (centres unmarked) [Compound I-667], for which the midpoint of inhibition, the IC50, lay at 7.95 nM.

Regarding `COc1ccc(S(=O)(=O)N(CC(C)C)CC(O)C(Cc2ccc(N3CCC(Cc4ccccc4-c4sc5c(c4C(=O)O)CC(C)(C)CC5)C3)cc2)NC(=O)OC2COC3(C)OCCC23)cc1` (centres unmarked) [Compound I-668], 7.06 nM corresponded to half-maximal inhibition (IC50). The IC50 values of the last two molecules are within 1.5-fold of each other.

The molecule `CCN(Cc1ccccc1C(=O)Nc1sc2c(c1C(=O)O)CC(C)(C)CC2)c1ccc(CC(NC(=O)OC2COC3(C)OCCC23)C(O)CN(CC(C)C)S(=O)(=O)c2ccc(OC)cc2)cc1` (centres unmarked) [Compound I-669] showed an IC50 of 8.54 nM.

In turn, `COc1ccc(S(=O)(=O)N(CC(C)C)CC(O)C(Cc2ccc(NCC3CCCC3c3sc4c(c3C(=O)O)CC(C)(C)CC4)cc2)NC(=O)OC2COC3(C)OCCC23)cc1` (centres unmarked) [Compound I-670] gave an IC50 of 2.67 nM.

`COc1ccc(S(=O)(=O)N(CC(C)C)CC(O)C(Cc2ccc(N3CC(Oc4cc5ccccc5cc4C(=O)Nc4sc5c(c4C(=O)O)CC(C)(C)CC5)C3)cc2)NC(=O)OC2COC3(C)OCCC23)cc1` (centres unmarked) [Compound I-671] gave an IC50 of 34.8 nM. This IC50 lies about 13-fold higher than the previous one.

In turn, `COc1ccc(S(=O)(=O)N(CC(C)C)CC(O)C(Cc2ccc(N3CCC(C(=O)Nc4ccccc4-c4sc5c(c4C(=O)O)CC(C)(C)CC5)C3)cc2)NC(=O)OC2COC3(C)OCCC23)cc1` (centres unmarked) [Compound I-672] returned an IC50 of 2.05 nM.

As for `COc1ccc(S(=O)(=O)N(CC(C)C)CC(O)C(Cc2ccc(NCc3cccc4c(-c5sc6c(c5C(=O)O)CC(C)(C)CC6)cccc34)cc2)NC(=O)OC2COC3(C)OCCC23)cc1` (centres unmarked) [Compound I-675], the IC50 turned out to be 13.4 nM.

`COc1ccc(S(=O)(=O)N(CC(C)C)CC(O)C(Cc2ccc(NCc3ccc(N4CCCCC4)cc3-c3sc4c(c3C(=O)O)CC(C)(C)CC4)cc2)NC(=O)OC2COC3(C)OCCC23)cc1` (centres unmarked) [Compound I-677]: half-maximal inhibition (IC50) was put at 2.32 nM. This IC50 is about 5.8-fold lower than that of the molecule before.

In the case of `COc1ccc(S(=O)(=O)N(CC(C)C)CC(O)C(Cc2ccc(NCc3cc(OC(F)(F)F)ccc3-c3sc4c(c3C(=O)O)CC(C)(C)CC4)cc2)NC(=O)OC2COC3(C)OCCC23)cc1` (centres unmarked) [Compound I-678], the IC50 is 5.48 nM.

As for `CN(Cc1ccccc1C(=O)Nc1sc2c(c1C(=O)O)CC(C)(C)CC2)c1ccc(CC(NC(=O)OC2COC3(C)OCCC23)C(O)CN(CC2CCCC2)S(=O)(=O)c2ccc3c(c2)OCO3)cc1` (centres unmarked) [Compound I-681], the IC50 came to 7.97 nM. This IC50 and that of the molecule before are within 1.5-fold of each other.

In the case of `COc1ccc(S(=O)(=O)N(CC2CCC2)CC(O)C(Cc2ccc(N(C)Cc3ccccc3C(=O)Nc3sc4c(c3C(=O)O)CC(C)(C)CC4)cc2)NC(=O)OC2COC3(C)OCCC23)cc1` (centres unmarked) [Compound I-682], the IC50 amounted to 4.37 nM.

With `COc1ccc(S(=O)(=O)N(CC(C)C)CC(O)C(Cc2ccc(N(C)Cc3ccc(OC)cc3C(=O)Nc3sc4c(c3C(=O)O)CC(C)(C)CC4)cc2)NC(=O)OC2COC3(C)OCCC23)cc1` (centres unmarked) [Compound I-683], the IC50 was 5.74 nM.

For the molecule `COc1ccc(S(=O)(=O)N(CC(C)C)CC(O)C(Cc2ccc(NCc3cc(Oc4cccc5cccnc45)ccc3-c3sc4c(c3C(=O)O)CC(C)(C)CC4)cc2)NC(=O)OC2COC3(C)OCCC23)cc1` (centres unmarked) [Compound I-684], the midpoint of inhibition, the IC50, lay at 2.83 nM.

Molecule `COc1ccc(S(=O)(=O)N(CC(C)C)CC(O)C(Cc2ccc(NCc3cc(Oc4ccccn4)ccc3-c3sc4c(c3C(=O)O)CC(C)(C)CC4)cc2)NC(=O)OC2COC3(C)OCCC23)cc1` (centres unmarked) [Compound I-685] came in with an IC50 of 2.98 nM.

Regarding `COc1ccc(S(=O)(=O)N(CC(C)C)CC(O)C(Cc2ccc(N(C)Cc3cc(Oc4ccccn4)ccc3-c3sc4c(c3C(=O)O)CC(C)(C)CC4)cc2)NC(=O)OC2COC3(C)OCCC23)cc1` (centres unmarked) [Compound I-686], the IC50 came out at 3.6 nM.

Turning to `COc1ccc(S(=O)(=O)N(CC(C)C)CC(O)C(Cc2ccc(NCc3ncccc3C(=O)Nc3sc4c(c3C(=O)O)CC(C)(C)CC4)cc2)NC(=O)OC2COC3(C)OCCC23)cc1` (centres unmarked) [Compound I-687], the IC50 was determined as 2.48 nM.

As for `COc1ccc(S(=O)(=O)N(CC(C)C)CC(O)C(Cc2ccc(NCc3cc(Oc4cccnc4)ccc3-c3sc4c(c3C(=O)O)CC(C)(C)CC4)cc2)NC(=O)OC2COC3(C)OCCC23)cc1` (centres unmarked) [Compound I-688], the IC50 was 2.59 nM. The IC50 values of the last two molecules are within 1.5-fold of each other.

Molecule `COc1ccc(S(=O)(=O)N(CC(C)C)CC(O)C(Cc2ccc(NCc3ccc(C(F)(F)F)cc3C(=O)Nc3sc4c(c3C(=O)O)CC(C)(C)CC4)cc2)NC(=O)OC2COC3(C)OCCC23)cc1` (centres unmarked) [Compound I-690] had an IC50 of 7.7 nM.

Molecule `COc1ccc(S(=O)(=O)N(CC(C)C)CC(O)C(Cc2ccc(NCc3cc(C(F)(F)F)ccc3C(=O)Nc3sc4c(c3C(=O)O)CC(C)(C)CC4)cc2)NC(=O)OC2COC3(C)OCCC23)cc1` (centres unmarked) [Compound I-691] yielded an IC50 of 6.44 nM.

In turn, `COc1ccc(S(=O)(=O)N(CC(C)C)CC(O)C(Cc2ccc(N(C)Cc3cc(-c4ccc5ccccc5c4)ccc3-c3sc4c(c3C(=O)O)CC(C)(C)CC4)cc2)NC(=O)OC2COC3(C)OCCC23)cc1` (centres unmarked) [Compound I-692] came in with an IC50 of 26.1 nM. Compared with the last molecule, the IC50 is about 4.1-fold higher.

`COc1ccc(S(=O)(=O)N(CC(C)C)CC(O)C(Cc2ccc(N(C)Cc3ncccc3C(=O)Nc3sc4c(c3C(=O)O)CC(C)(C)CC4)cc2)NC(=O)OC2COC3(C)OCCC23)cc1` (centres unmarked) [Compound I-694] yielded an IC50 of 2.27 nM.

`COc1ccc(S(=O)(=O)N(CC(C)C)CC(O)C(Cc2ccc(NCc3ccc(Oc4ccccc4)cc3-c3sc4c(c3C(=O)O)CC(C)(C)CC4)cc2)NC(=O)OC2COC3(C)OCCC23)cc1` (centres unmarked) [Compound I-695] returned an IC50 of 4.07 nM. This IC50 is about 1.8-fold higher than that of the molecule before.

Molecule `COc1ccc(S(=O)(=O)N(CC(C)C)CC(O)C(Cc2ccc(N(C)Cc3ccc(Oc4ccccc4)cc3-c3sc4c(c3C(=O)O)CC(C)(C)CC4)cc2)NC(=O)OC2COC3(C)OCCC23)cc1` (centres unmarked) [Compound I-696] gave an IC50 of 12.2 nM.

`COc1ccc(S(=O)(=O)N(CC(C)C)CC(O)C(Cc2ccc(NC3CCc4c(-c5sc6c(c5C(=O)O)CC(C)(C)CC6)cccc43)cc2)NC(=O)OC2COC3(C)OCCC23)cc1` (centres unmarked) [Compound I-697] had an IC50 of 2.9 nM.

The molecule `COc1ccc(S(=O)(=O)N(CC(C)C)CC(O)C(Cc2ccc(N(C)Cc3cc(OC(F)(F)F)ccc3-c3sc4c(c3C(=O)O)CC(C)(C)CC4)cc2)NC(=O)OC2COC3(C)OCCC23)cc1` (centres unmarked) [Compound I-699] registered an IC50 of 10.3 nM.

Molecule `COc1ccc(S(=O)(=O)N(CC(C)C)CC(O)C(Cc2ccc(N(C)Cc3cc(N4CCOCC4)ccc3-c3sc4c(c3C(=O)O)CC(C)(C)CC4)cc2)NC(=O)OC2COC3(C)OCCC23)cc1` (centres unmarked) [Compound I-700] returned an IC50 of 2.02 nM.

The molecule `COc1ccc(S(=O)(=O)N(CC(C)C)CC(O)C(Cc2ccc(N(C)Cc3cnc4sccc4c3-c3sc4c(c3C(=O)O)CC(C)(C)CC4)cc2)NC(=O)OC2COC3(C)OCCC23)cc1` (centres unmarked) [Compound I-702] had an IC50 of 2.15 nM. The IC50 values of the last two molecules are within 1.5-fold of each other.

Regarding `COc1ccc(S(=O)(=O)N(CC(C)C)CC(O)C(Cc2ccc(N(C)Cc3cc(-c4sc5c(c4C(=O)O)CC(C)(C)CC5)cc4ccccc34)cc2)NC(=O)OC2COC3(C)OCCC23)cc1` (centres unmarked) [Compound I-703], the IC50 turned out to be 4.6 nM.

Regarding `COc1ccc(S(=O)(=O)N(CC(C)C)CC(O)C(Cc2ccc(NCC3=C(c4sc5c(c4C(=O)O)CC(C)(C)CC5)CCC(F)(F)C3)cc2)NC(=O)OC2COC3(C)OCCC23)cc1` (centres unmarked) [Compound I-705], the IC50 is 4.87 nM.

Molecule `COc1ccc(S(=O)(=O)N(CC(C)C)CC(O)C(Cc2ccc(N(C)CC3=C(c4sc5c(c4C(=O)O)CC(C)(C)CC5)CCC(F)(F)C3)cc2)NC(=O)OC2COC3(C)OCCC23)cc1` (centres unmarked) [Compound I-706] returned an IC50 of 6.62 nM.

Consider `COc1ccc(S(=O)(=O)N(CC(C)C)CC(O)C(Cc2ccc(N(C)Cc3cc(N4CCC4)ccc3-c3sc4c(c3C(=O)O)CC(C)(C)CC4)cc2)NC(=O)OC2COC3(C)OCCC23)cc1` (centres unmarked) [Compound I-708], for which the IC50 came to 1.65 nM. This IC50 lies about 4-fold lower than the previous one.

For the molecule `COc1ccc(S(=O)(=O)N(CC(C)C)CC(O)C(Cc2ccc(N(C)C3CCc4c(-c5sc6c(c5C(=O)O)CC(C)(C)CC6)cccc43)cc2)NC(=O)OC2COC3(C)OCCC23)cc1` (centres unmarked) [Compound I-709], the IC50 was 7.2 nM.

In the case of `COc1ccc(S(=O)(=O)N(CC(C)C)CC(O)C(Cc2ccc(N(C)C3CCc4c(-c5sc6c(c5C(=O)O)CC(C)(C)CC6)cccc43)cc2)NC(=O)OC2COC3(C)OCCC23)cc1` (centres unmarked) [Compound I-710], the IC50 worked out at 4.26 nM.

On to `COc1ccc(S(=O)(=O)N(CC(C)C)CC(O)C(Cc2ccc(NC3CCCc4c(-c5sc6c(c5C(=O)O)CC(C)(C)CC6)cccc43)cc2)NC(=O)OC2COC3(C)OCCC23)cc1` (centres unmarked) [Compound I-711], for which 8.1 nM corresponded to half-maximal inhibition (IC50).

Turning to `COc1ccc(S(=O)(=O)N(CC(C)C)CC(O)C(Cc2ccc(NCc3ccccc3-c3cnc(-c4sc5c(c4C(=O)O)CC(C)(C)CC5)nc3)cc2)NC(=O)OC2COC3(C)OCCC23)cc1` (centres unmarked) [Compound I-712], the IC50 came to 2.02 nM.

As to `COc1ccc(S(=O)(=O)N(CC(C)C)CC(O)C(Cc2ccc(NCc3ccccc3-c3ccc(-c4sc5c(c4C(=O)O)CC(C)(C)CC5)nc3)cc2)NC(=O)OC2COC3(C)OCCC23)cc1` (centres unmarked) [Compound I-713], the IC50 amounted to 1.69 nM.

`COc1ccc(S(=O)(=O)N(CC(C)C)CC(O)C(Cc2ccc(N(C)Cc3nc(N4CCCC4)sc3-c3ccc(-c4sc5c(c4C(=O)O)CC(C)(C)CC5)cc3)cc2)NC(=O)OC2COC3(C)OCCC23)cc1` (centres unmarked) [Compound I-715]: half-maximal inhibition (IC50) was put at 5.31 nM.
